Measurements from publication PMC3958483, “Fine Specificity and Molecular Competition in SLAM Family Receptor Signalling” (PLoS ONE, 2014).
Entries after “also recorded” stand apart in the source; their conditions may differ.

How the values were obtained:
[1] = system: EAT-2; settings: ref [30]; cited from earlier work
Excerpt: (§1) The specificities of their SH2 domains overlap, introducing the concept of competition between them for ITSMs in cells where they are co-expressed, including NK cells.

[2] = target: T1, SAP (Homo sapiens, UniProt O60880); assay: SPR binding of SAP to immobilised phosphopeptides; settings: 37°C
T1 construct: His-tag; made in house; host or cells: E. coli BL21(DE3)pLysS
T1 sequence (O60880 1-128): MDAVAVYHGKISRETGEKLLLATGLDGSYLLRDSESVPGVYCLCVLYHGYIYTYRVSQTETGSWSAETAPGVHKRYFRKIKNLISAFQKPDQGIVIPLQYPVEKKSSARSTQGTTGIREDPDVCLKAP
Description: Measurements of protein-protein affinity were performed on BIAcore 3000 and T200 systems using CM5 or biotin capture chips (GE Healthcare Ltd, UK). Streptavidin was coupled to CM5 sensor chips using standard NHS/EDC chemical linkage, followed by immobilization of biotinylated peptides. The levels of peptide immobilized were approximately 25 and 50 response units respectively of single and tandem tyrosine motifs to facilitate saturating binding and limitation of “bridging” [22], [45]. […] Equilibrium binding coefficients and dissociation and association rates were calculated using BIAevaluation and/or GraphPad Prism 5.4 software.

[3] = target: T2, EAT-2 (Homo sapiens, UniProt O14796); assay: SPR binding of EAT-2 to immobilised phosphopeptides; settings: 37°C
T2 construct: His-tag; made in house; host or cells: E. coli BL21(DE3)pLysS
T2 sequence (O14796 1-132): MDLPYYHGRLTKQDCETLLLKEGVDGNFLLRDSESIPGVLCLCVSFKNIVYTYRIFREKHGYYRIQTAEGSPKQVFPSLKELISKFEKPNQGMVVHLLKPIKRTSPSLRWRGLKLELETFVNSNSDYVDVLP
Excerpt: Biotinylated EAT-2 was produced by expression of full length human EAT-2 with a C-terminal BirA tag ([…]) in the E coli expression vector pTrcHisA. Constructs encoding the 6xHis-tagged tandem SH2 domains plus the SH3 domains of PLCγ1 (Swiss-Prot: P19174, aa 536–863) and PLCγ2 (Swiss-Prot: P16885, aa 519–838) were generated in pTrcHisA (5′ joining sequence with BglII site underlined: gag atc tcc translates as EIS). The molecular weight (MW) and theoretical extinction coefficients (EC) of recombinant PLCγ1 and PLCγ2 SH2-SH2-SH3 domains were PLCγ1; MW = 42531, EC = 63,830 M^−1 cm^−1 and PLCγ2; MW = 42415, EC = 67,270 M^−1 cm^−1.
Soluble recombinant proteins were produced in BL21(DE3)pLysS E. coli (Calbiochem) at 37°C in 2TY medium and induced at OD 600 = 0.6 with 0.1 mM IPTG for 4 h or in 2XYT auto-induction (Formedium) medium overnight. Bacterial pellets were resuspended in ∼0.1 volume 10 mM HEPES pH7.4, 150 mM NaCl and used immediately or stored at −20°C in 10 ml aliquots. His-tag mediated protein purification was performed on a Co^2+ or Ni^2+ column by standard protocols. […] Where applicable, proteins were stored frozen in 10–25 mM HEPES pH 7.4, 200–300 mM NaCl (pH 7.4).All proteins were purified by size exclusion chromatography immediately prior to SPR analysis.
Measurements of protein-protein affinity were performed on BIAcore 3000 and T200 systems using CM5 or biotin capture chips (GE Healthcare Ltd, UK). Streptavidin was coupled to CM5 sensor chips using standard NHS/EDC chemical linkage, followed by immobilization of biotinylated peptides. The levels of peptide immobilized were approximately 25 and 50 response units respectively of single and tandem tyrosine motifs to facilitate saturating binding and limitation of “bridging” [22], [45]. Purified recombinant proteins were passed over the immobilized peptides at a range of concentrations in HBS-EP buffer, 10 mM HEPES pH 7.4, 150 mM NaCl, 3.4 mM EDTA, 0.005% surfactant, P20. Equilibrium binding coefficients and dissociation and association rates were calculated using BIAevaluation and/or GraphPad Prism 5.4 software.
as §1

[4] = Pull-down with phosphorylated CD244 ITSM1 from NK cell lysates, LC-MS/MS; type: binding; settings: human NK cell lysates; compared with control phosphopeptide SHIP-1 Y865
Description: For pull-down of associated proteins, streptavidin Sepharose (GE Healthcare) was pre-coated with saturating amounts of peptide or EAT-2. NK92 cells (4×10^8) were treated with 500 μM pervanadate for 15 minutes, then lysed in PBS, 1% Triton X-100, 1 mM sodium orthovanadate in the presence of mammalian protease inhibitor solution (Sigma). Lysates were pre-cleared by centrifugation, followed by incubation with streptavidin Sepharose. Peptide or EAT-2-coated streptavidin beads were incubated with NK92 lysates for 2 hours at 4°C with rotation. Beads were washed once with 15 ml ice cold PBS/1% (v/v) Triton X-100. Bound protein was eluted using 100 mM glycine-HCl pH 2.5.
Protein samples were prepared for mass spectrometry as described previously. Briefly, eluted proteins were spun onto the membranes of Vivacon 500 filters (10,000 MWCO – Sartorius). Membranes were washed once with PBS then proteins were denatured with 8 M urea, reduced with 10 mM DTT in 25 mM ammonium bicarbonate buffer, followed by alkylation with 50 mM iodoacetamide. Proteins were then digested overnight with trypsin. Tryptic peptides were then eluted from the membrane and analyzed on an Ultimate 3000 HPLC-coupled Orbitrap XL mass spectrometer. Proteins were identified by liquid chromatography-coupled tandem mass-spectrometry (LC-MS/MS). Raw data files were converted to mzXML format using ReADW (v. 4.2.1) and submitted to the Central Proteomics Facilities Pipeline for database comparison and peptide identification. Searching against the International Protein Index (IPI) human protein sequence database for protein identification, protein and peptide hits were statistically validated by applying a 1% false discovery rate (FDR) by searching against a concatenated target/decoy database. Datasets were searched with variable peptide modifications for phosphotyrosine, phosphoserine, phosphothreonine, oxidation of methionine and deamination.
Protein identification data were exported into ProteinCenter (v3.8.3013 – Thermo Fisher) for filtering and annotation. Results were filtered to remove any proteins with less than 3 unique peptides, less than 10 percent sequence coverage, or median protein probability scores less than 0.5. To establish sample specificity, any protein with at least 10-fold greater sequence coverage in one sample compared with the other was considered to be specific for that sample.
Similarly, differences in specificity of inhibitory SH2 domain containing proteins for ITSMs are relevant to understanding mechanisms of inhibition by ITSMs. We focused on CD244 ITSMs to establish general paradigms.

Substance: ADYDTI [mouse CRACC tyrosine motif in the equivalent position to human CRACC ITSM1]
- binding of EAT-2 to mouse CRACC motif [1]: did not bind EAT-2

Substance: Biotin-GENTEpYDTIPH [CRACC ITSM1, synthetic biotinylated phosphopeptide from human CRACC ITSM1]
- binding of SAP [2]: Neither SAP nor EAT-2 bound; also recorded: No specific association
- binding of EAT-2 [3]: Neither SAP nor EAT-2 bound; also recorded: No specific association

Substance: Growth factor receptor-bound protein 2 (GRB2): SH2 domain containing protein pulled down by CD244 ITSM1
- pull-down by CD244 ITSM1 [4]: pulled down by the ITSM peptide

Substance: SHP-1: SH2 domain containing phosphatase
- pull-down by CD244 ITSM1 [4]: pulled down by the ITSM peptide

Substance: SHP-2: SH2 domain containing tyrosine phosphatase
- pull-down by CD244 ITSM1 [4]: pulled down by the ITSM peptide
